Experimental data taken from ChEMBL document CHEMBL1201862, “PubChem BioAssay data set” (2004).
Calls of active or inactive are those of the source.

Tests used:
[1] = inhibitors of Vif binding to APOBEC3G peptide, primary screen, biochemical, TR-FRET, GST-Vif 1-94, biotin-A3G peptide, dose response retest (AID 1117319); assay type: functional;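 also: TR-FRET signal of purified GST-Vif binding a biotinylated A3G peptide; inhibitors lower the FRET signal by blocking Vif and A3G binding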
Galanin receptor type 3 = molecular target: T1, Galanin receptor type 3 (Homo sapiens, UniProt O60755); experiment: Fluorescence-based cell-based primary high throughput dose response assay to identify antagonists of the Galanin Receptor 3 (GalR3).; assay type: functional
T1 sequence (O60755 whole entry): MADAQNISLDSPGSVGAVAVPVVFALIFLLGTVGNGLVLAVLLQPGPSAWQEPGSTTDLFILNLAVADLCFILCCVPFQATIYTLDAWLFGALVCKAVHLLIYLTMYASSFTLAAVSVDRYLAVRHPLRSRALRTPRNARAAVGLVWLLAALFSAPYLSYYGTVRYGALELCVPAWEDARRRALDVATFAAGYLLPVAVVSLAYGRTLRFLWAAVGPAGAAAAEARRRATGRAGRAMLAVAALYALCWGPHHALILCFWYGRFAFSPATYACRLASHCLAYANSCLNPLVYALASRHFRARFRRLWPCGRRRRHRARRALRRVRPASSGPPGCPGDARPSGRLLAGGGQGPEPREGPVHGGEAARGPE

cells = assay type: functional, cell-based; details: HEK-CNG
[2] = M. tuberculosis H37Rv growth inhibitors, H37Rv strain (AID 1626); assay type: functional
[3] = control 3'UTR Renilla luciferase suppression, dose response, counter-screen for Shn3 inhibitor project, cell-based, Clone20-Shn3RL, cherry-picked (AID 624133); assay type: functional
[4] = HepG2 cell cytotoxicity, dose response, cytotoxicity control for Shn3 inhibitor project, CellTiter-Glo, cherry-picked (AID 624134); assay type: functional, cell-based
[5] = inhibitors of clade B AD8 Env fusion, dose response, cell-based, cherry-pick (AID 652062); assay type: functional;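 also: luciferase signal from cell-cell fusion driven by HIV-1 clade B AD8 Env; potency is for inhibitors of fusion seen as a drop in luminescence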
[6] = Shn3 3'UTR reporter inhibitors, dose response, cell-based, Clone20 osteoblasts, firefly luciferase, cherry-picked (AID 624132); assay type: functional;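 also: firefly luciferase luminescence from reporter carrying the Shn3 3'UTR in osteoblasts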
[7] = molecular target: T2, Zinc finger protein mex-5 (Caenorhabditis elegans, UniProt Q9XUB2); experiment: MEX-5/TCR-2 RNA interaction inhibitors, dose response, biochemical, C. elegans, fluorescence polarization (AID 1960)
T2 sequence (Q9XUB2 whole entry): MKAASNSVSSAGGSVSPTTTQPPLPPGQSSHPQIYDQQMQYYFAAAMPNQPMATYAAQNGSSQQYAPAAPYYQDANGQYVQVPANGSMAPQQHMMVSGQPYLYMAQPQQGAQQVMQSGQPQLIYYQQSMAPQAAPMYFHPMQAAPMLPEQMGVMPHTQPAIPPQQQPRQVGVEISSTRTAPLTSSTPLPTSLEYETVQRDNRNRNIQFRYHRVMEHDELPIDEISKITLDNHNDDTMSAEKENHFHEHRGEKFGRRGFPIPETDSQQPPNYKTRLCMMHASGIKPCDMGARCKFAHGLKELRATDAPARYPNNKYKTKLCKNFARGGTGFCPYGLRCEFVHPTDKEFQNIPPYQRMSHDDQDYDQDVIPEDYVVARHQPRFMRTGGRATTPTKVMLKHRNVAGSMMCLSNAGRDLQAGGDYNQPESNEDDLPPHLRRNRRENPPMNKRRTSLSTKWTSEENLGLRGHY

Caspase-6 = molecular target: T3, Caspase-6 (Homo sapiens, UniProt P55212); experiment: human caspase-6 inhibitors, dose response, biochemical, VEID-R110 fluorescence, cherry-pick (AID 720632)
T3 sequence (P55212 whole entry): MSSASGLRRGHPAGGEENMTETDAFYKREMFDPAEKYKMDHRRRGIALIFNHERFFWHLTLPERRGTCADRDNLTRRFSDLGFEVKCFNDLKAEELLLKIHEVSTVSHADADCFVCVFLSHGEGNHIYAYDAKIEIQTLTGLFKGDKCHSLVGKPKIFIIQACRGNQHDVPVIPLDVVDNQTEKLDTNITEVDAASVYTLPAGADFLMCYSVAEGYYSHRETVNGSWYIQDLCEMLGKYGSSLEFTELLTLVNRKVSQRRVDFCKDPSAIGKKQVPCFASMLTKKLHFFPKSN

[8] = molecular target: T4, RNA-binding protein pos-1 (Caenorhabditis elegans, UniProt G5EF15); experiment: inhibitors of POS-1/mex-3 RNA binding, dose response, biochemical, fluorescence polarization (AID 1964);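 also: purified POS-1 fused to maltose binding protein made in E. coli; potency of compounds blocking POS-1 binding to fluorescent RNA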
T4 sequence (G5EF15 whole entry): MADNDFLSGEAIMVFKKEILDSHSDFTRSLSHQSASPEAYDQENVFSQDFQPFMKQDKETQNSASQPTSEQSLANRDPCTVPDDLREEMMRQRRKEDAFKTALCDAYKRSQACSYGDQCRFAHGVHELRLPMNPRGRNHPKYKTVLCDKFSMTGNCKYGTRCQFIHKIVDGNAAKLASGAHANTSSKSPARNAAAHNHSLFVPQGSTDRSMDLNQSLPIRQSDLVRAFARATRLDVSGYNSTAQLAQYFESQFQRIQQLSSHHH

[9] = molecular target: Peroxisome proliferator-activated receptor gamma/Nuclear receptor coactivator 2 (Homo sapiens, UniProt P37231); experiment: (§1) TR-FRET dose response biochemical High Throughput Screening assay for agonists of the steroid receptor coactivator 2 (SRC-2) recruitment by the peroxisome proliferator-activated receptor gamma (PPAR gamma): non-selective agonists. [Related pubchem assays: 1297, 1032 ]; assay type: functional
[10] = molecular target: Peroxisome proliferator-activated receptor gamma/Nuclear receptor coactivator 3 (Homo sapiens, UniProt P37231); experiment: as §1, with “3 (SRC-3)” for “2 (SRC-2)”, “1301 (Confirmation screen.), 1048 (Primary screen.)]” for “1297, 1032 ]”; assay type: functional
[11] = molecular target: Peroxisome proliferator-activated receptor gamma/Nuclear receptor coactivator 1 (Homo sapiens, UniProt P37231); experiment: as §1, with “1 (SRC-1)” for “2 (SRC-2)”, “assays (depositor defined):AID1300, AID1808, AID504735, AID631]” for “assays: 1297, 1032 ]”; assay type: protein assay
Sequence of Peroxisome proliferator-activated receptor gamma/Nuclear receptor coactivator 1 (P37231 whole entry): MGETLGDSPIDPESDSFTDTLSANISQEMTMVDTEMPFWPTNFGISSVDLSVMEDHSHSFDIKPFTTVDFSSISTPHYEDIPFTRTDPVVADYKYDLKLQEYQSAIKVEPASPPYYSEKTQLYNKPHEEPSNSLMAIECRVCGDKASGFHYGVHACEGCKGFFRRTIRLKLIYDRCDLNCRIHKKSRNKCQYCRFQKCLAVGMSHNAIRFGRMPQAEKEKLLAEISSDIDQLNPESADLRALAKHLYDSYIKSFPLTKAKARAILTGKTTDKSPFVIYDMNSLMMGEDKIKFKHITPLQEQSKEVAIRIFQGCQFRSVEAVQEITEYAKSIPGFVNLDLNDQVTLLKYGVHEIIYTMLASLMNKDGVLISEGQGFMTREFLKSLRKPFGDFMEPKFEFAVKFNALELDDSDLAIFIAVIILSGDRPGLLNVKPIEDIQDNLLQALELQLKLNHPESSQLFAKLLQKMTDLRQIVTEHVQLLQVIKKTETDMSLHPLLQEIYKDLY
Sequence of Peroxisome proliferator-activated receptor gamma/Nuclear receptor coactivator 1 (Q15788 whole entry, further chain): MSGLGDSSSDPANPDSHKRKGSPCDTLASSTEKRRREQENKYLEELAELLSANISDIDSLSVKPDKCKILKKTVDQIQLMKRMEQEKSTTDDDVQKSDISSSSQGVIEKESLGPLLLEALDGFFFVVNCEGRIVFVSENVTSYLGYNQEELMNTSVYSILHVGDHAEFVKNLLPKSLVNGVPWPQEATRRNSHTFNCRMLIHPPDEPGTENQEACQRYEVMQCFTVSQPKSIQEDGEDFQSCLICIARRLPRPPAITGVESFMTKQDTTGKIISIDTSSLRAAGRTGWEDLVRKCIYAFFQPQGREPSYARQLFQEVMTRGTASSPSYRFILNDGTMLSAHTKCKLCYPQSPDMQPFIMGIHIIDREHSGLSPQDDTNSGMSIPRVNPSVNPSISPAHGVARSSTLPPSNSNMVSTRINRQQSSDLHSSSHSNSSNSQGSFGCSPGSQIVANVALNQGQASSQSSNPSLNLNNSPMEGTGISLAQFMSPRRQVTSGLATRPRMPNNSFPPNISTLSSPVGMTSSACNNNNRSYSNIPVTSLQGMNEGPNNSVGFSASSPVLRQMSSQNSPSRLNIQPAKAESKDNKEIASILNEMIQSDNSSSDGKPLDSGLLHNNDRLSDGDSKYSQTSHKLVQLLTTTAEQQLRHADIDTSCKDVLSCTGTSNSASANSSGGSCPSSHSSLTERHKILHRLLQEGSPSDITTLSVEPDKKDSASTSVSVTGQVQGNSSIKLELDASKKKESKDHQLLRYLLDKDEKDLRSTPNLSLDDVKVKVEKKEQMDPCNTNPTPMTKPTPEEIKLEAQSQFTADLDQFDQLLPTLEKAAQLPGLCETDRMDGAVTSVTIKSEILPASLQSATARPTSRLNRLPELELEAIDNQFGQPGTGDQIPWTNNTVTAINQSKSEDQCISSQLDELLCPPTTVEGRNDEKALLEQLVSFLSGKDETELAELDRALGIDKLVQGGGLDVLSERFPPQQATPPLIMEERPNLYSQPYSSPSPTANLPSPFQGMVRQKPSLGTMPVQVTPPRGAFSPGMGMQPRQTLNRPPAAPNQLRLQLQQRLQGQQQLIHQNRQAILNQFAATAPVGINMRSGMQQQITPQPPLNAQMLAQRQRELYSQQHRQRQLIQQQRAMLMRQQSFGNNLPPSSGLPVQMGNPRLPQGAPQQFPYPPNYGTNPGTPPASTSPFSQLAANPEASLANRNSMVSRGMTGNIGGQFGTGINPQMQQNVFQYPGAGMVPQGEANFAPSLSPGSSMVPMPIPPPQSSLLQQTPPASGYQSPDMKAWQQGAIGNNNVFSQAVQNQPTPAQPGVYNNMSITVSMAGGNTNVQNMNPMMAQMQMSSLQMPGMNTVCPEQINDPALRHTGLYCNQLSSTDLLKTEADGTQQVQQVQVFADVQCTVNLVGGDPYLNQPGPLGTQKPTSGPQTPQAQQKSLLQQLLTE

Sequence of Peroxisome proliferator-activated receptor gamma/Nuclear receptor coactivator 2 (P37231 whole entry): as the sequence (P37231 whole entry) above
Sequence of Peroxisome proliferator-activated receptor gamma/Nuclear receptor coactivator 2 (Q15596 whole entry, further chain): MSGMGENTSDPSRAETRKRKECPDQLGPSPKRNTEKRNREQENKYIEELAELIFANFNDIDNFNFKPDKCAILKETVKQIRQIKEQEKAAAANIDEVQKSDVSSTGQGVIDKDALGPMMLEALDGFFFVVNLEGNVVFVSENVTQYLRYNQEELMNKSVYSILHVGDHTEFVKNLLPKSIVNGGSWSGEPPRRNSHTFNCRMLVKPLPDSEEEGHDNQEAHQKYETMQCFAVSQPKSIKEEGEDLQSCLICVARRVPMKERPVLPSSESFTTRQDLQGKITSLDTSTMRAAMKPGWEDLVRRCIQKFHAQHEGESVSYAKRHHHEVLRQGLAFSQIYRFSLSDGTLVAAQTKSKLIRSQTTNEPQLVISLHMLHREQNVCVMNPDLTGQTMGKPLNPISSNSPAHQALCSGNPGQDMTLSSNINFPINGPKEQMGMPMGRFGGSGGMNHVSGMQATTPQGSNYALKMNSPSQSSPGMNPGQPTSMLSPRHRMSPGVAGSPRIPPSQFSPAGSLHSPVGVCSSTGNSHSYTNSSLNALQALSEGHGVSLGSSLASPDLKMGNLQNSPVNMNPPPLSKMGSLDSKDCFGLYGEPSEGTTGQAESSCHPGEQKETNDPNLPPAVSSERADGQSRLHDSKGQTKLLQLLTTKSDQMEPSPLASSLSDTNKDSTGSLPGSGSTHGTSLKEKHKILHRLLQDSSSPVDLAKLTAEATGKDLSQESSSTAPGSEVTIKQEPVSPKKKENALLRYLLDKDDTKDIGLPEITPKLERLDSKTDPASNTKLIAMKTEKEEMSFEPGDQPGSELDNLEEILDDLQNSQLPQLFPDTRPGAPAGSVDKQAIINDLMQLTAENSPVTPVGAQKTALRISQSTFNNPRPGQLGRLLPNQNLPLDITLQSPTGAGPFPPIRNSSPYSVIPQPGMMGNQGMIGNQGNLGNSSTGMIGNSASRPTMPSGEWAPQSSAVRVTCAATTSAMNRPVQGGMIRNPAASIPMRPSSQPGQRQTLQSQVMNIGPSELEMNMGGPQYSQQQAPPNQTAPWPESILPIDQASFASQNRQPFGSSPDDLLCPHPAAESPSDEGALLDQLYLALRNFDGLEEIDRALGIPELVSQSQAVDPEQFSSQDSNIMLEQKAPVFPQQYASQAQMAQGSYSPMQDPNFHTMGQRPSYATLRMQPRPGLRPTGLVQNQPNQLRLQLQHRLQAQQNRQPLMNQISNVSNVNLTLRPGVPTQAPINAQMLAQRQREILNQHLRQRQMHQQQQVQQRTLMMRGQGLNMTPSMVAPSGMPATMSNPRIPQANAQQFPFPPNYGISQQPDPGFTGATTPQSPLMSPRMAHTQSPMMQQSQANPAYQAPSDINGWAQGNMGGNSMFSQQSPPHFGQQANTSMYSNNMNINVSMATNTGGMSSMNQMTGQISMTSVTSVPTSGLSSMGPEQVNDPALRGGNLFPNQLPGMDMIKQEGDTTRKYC

CCCn1c(=N)n(CC(O)c2ccco2)c2ccccc21 (stereo not given)
IC50 [1]: > 100 µM (active)

Cc1ccc(C(=O)N2c3ccc(F)cc3CCC2C)o1 (stereo not given)
IC50 [1]: > 100 µM (active)

COc1ccc(-c2cn(-c3ccc(C)c(Cl)c3)c(S)n2)cc1OC
IC50 (Galanin receptor type 3): > 29.9 µM (inactive)
EC50 (cells): > 29.9 µM (inactive)

COc1ccc(N2CCN(CCNC(=O)Nc3ccc(Cl)cc3)CC2)cc1
IC50 [1]: > 100 µM (active)

COc1cccc(CNc2ccccc2O)c1OCc1ccccc1F
IC50 [2]: > 100 µM (active)

C=CCNc1nc2c(c(=O)n(C)c(=O)n2C)n1CCCCCC
AC50 [3]: 1.18 µM (active)
AC50 [4]: 2.6 µM (active)
IC50 (Galanin receptor type 3): 1.95 µM (active)
AC50 [5]: 7.74 µM (active)
EC50 (cells): > 29.9 µM (inactive)
AC50 [6]: 0.761 µM (active)

N#CC1=C(N)Oc2cc(O)c(Cl)cc2C1c1ccccc1F (stereo not given)
EC50 [7]: > 300 µM (not active)
AC50 (Caspase-6): 42.2 µM (active)
EC50 [8]: > 300 µM (not active)

N#CC1=C(N)Oc2c(c(=O)oc3ccccc23)C1c1ccc([N+](=O)[O-])o1 (stereo not given)
AC50 (Caspase-6): 13.9 µM (active)

COc1c(F)c(F)c(C(=O)Nc2ccc3oc(-c4ccncc4)nc3c2)c(F)c1F
EC50 [9]: 20.6 µM (not active)
IC50 [1]: > 100 µM (active)
EC50 [10]: 57.7 µM (not active)
EC50 [11]: 21.5 µM (inactive)
